Test results from patent US20110212484A1, “In Vitro Model of Focal Ischemia” (priority 2008, published 2011).

Key:
rat brain slices = test: In vitro focal ischemia (focal OGD) in brain slices, TTC staining of infarct area; format: cell-based; conditions: 100 μM lidocaine added to OGD media, focally applied 2 hours at 100 μL/min, TTC stain
Text: In order to mimic in vivo focal ischemia in the present in vitro system, oxygen-glucose deprived (OGD) medium was focally applied to a small area (0.25-0.5 mm wide or 5-10% of cortex) within the cortex of a brain slice, or within a slice of liver or heart tissue. […] Oxygen was displaced from the media by bubbling with 95% N2 and 5% CO2. […] Nozzle of the microperfusion system was made from a 23 gauge stainless steel tube and was mounted to a micromanipulator in order to ensure accurate placement. Using the micromanipulator the nozzle was lowered until it was just touching the surface of the slice. […] In FIG. 1C, OGD solution was focally applied to the slice for 1 hour. […] In FIG. 1D, OGD solution was focally applied to the slice for 2 hours.

[1] = test system: cortical neurons adjacent to the region of focal OGD perfusion; test: Penumbra region of focal ischemia: intracellular recordings of membrane potential adjacent to the focal OGD perfusion; format: cell-based, rat
Text: In order to mimic in vivo focal ischemia in the present in vitro system, oxygen-glucose deprived (OGD) medium was focally applied to a small area (0.25-0.5 mm wide or 5-10% of cortex) within the cortex of a brain slice, or within a slice of liver or heart tissue. […] The OGD medium for liver and heart slices was deoxygenated, glucose-free Krebs solution. Oxygen was displaced from the media by bubbling with 95% N2 and 5% CO2. […] Nozzle of the microperfusion system was made from a 23 gauge stainless steel tube and was mounted to a micromanipulator in order to ensure accurate placement. Using the micromanipulator the nozzle was lowered until it was just touching the surface of the slice.
OGD solution was focally perfused onto rat brain slices bathed in oxygenated aCSF solution. […] A representative recording of membrane potential is depicted in FIG. 5A. Focal perfusion of OGD caused neurons outside the region of perfusion to progressively depolarize. When edaravone (100 μM) was added to the OGD media this depolarization was attenuated. This is reflected in the mean data (FIG. 5B). Percentage neuronal survival after 75 minutes is reflected in FIG. 5C. Neurons were considered “dead” if they became irreversibly depolarized to approximately 0 mV. The addition of 100 μM edaravone doubled neuronal survival from OGD. […] In FIG. 5 the * denotes p<0.05.

cortical neurons = test: Focal glutamate perfusion of brain slices, intracellular recordings of membrane potential; conditions: aCSF containing 20 mM glutamate focally applied at 100 μL/min, neurons within the region of focal perfusion

## CCN(CC)CC(=O)Nc1c(C)cccc1C [Lidocaine, lidocaine]
Rat brain slices
  area of cell death caused by OGD: reduced the area of cell death

## CC1=NN(c2ccccc2)C(=O)C1 [edaravone]
[1]; 100 μM edaravone added to OGD media, approximately 0.9 mm from focal perfusion
  progressive depolarization of neurons outside the region of perfusion: attenuated
[1]; 100 μM edaravone, after 75 minutes, penumbra region
  neuronal survival from OGD: doubled

## N[C@@H](CCC(=O)O)C(=O)O [glutamate]
Cortical neurons
  membrane potential of neuron (depolarization): caused a rapid depolarization of the neuron
